# In ChEMBL document CHEMBL6114992, “Design, synthesis, biological evaluation, and mechanism of action of new pyrazines as anticancer agents in vitro and in vivo” (Bioorg Med Chem, 2025):
# Key:
# Format in all cases: functional, cell-based
# U-937 = test: Antiproliferative activity against human U-937 cells assessed as inhibition of cell growth incubated for 72 hrs by MTT assay; conditions: U-937, 72 h
# THP-1 = test: Antiproliferative activity against human THP-1 cells assessed as inhibition of cell growth incubated for 72 hrs by MTT assay; conditions: THP-1, 72 h
# KG-1 = test: Antiproliferative activity against human KG-1 cells assessed as inhibition of cell growth incubated for 72 hrs by MTT assay; conditions: KG-1, 72 h
# [1] = Antiproliferative activity against human SK-OV-3/Taxol cells assessed as inhibition of cell growth incubated for 72 hrs by MTT assay; conditions: SK-OV-3, 72 h
# SK-OV-3 = test: Antiproliferative activity against human SK-OV-3 cells assessed as inhibition of cell growth incubated for 72 hrs by MTT assay; conditions: SK-OV-3, 72 h
Structure (SMILES),IC50 (U-937) [µM],IC50 (THP-1) [µM],IC50 (SK-OV-3) [µM],IC50 (KG-1) [µM],IC50 [1] [µM]
O=C(/C=C/c1ccc(C(F)(F)F)cc1)c1cnccn1,11.9,8.3,9.72,7.87,10.4
CSc1ccc(/C=C/C(=O)c2cnccn2)cc1,7.06,8.37,6.48,5.56,8.03
O=C(/C=C/c1csc2ccccc12)c1cnccn1,14,8.76,14.1,6.08,15.1
CCc1nccnc1C(=O)/C=C/C=C/CCC=C(C)C,39.7,> 50,> 50,35.7,> 50
O=C(/C=C/c1cccc(Cl)c1)c1cnccn1,11.5,10.3,10.9,9.97,10.6
Cc1nccnc1C(=O)/C=C/c1ccc(F)cc1,26.1,30.2,30.7,21.7,29.2
O=C(/C=C/c1ccc(Br)cc1)c1cnccn1,> 50,23.7,> 50,20.4,> 50
CCc1nccnc1C(=O)/C=C/c1ccc(OC)c(OC)c1,7.95,8.36,6.71,9.45,7.92
CCc1nccnc1C(=O)/C=C/c1ccc(F)cc1F,8.02,5.71,5.24,25.7,7.97
O=C(/C=C/c1ccccc1)c1cnccn1,8.05,15.3,> 50,10.6,> 50
Cc1nccnc1C(=O)/C=C/c1ccccc1N1CCOCC1,14.3,11.5,2.57,5.63,3.24
O=C(/C=C/c1ccc(Cl)cc1Cl)c1cnccn1,8.31,6.54,> 50,6.57,> 50
CCc1nccnc1C(=O)/C=C/c1ccc(C)cc1,9.32,10.5,6.26,10,7.33
O=C(/C=C/c1ccc(Cl)cc1)c1cnccn1,11.5,10.2,9.91,12.3,10.4
Cc1nccnc1C(=O)/C=C/c1ccccc1F,22.6,5.5,10.2,5.38,10.7
Cc1nccnc1C(=O)/C=C/C=C/c1ccc(F)cc1,10.3,45.4,10.8,27.4,11.4

Structure (SMILES),IC50 (U-937) [µM],IC50 (THP-1) [µM],IC50 (SK-OV-3) [µM],IC50 (KG-1) [µM],IC50 [1] [µM]
Cc1nccnc1C(=O)/C=C/c1ccc(F)cc1F,13.5,17.6,3.33,6.15,2.99
O=C(/C=C/c1ccc(F)cc1)c1cnccn1,> 50,> 50,> 50,> 50,> 50
O=C(/C=C/c1ccccc1F)c1cnccn1,11.9,11.9,3.88,9.89,6.18
CCc1nccnc1C(=O)/C=C/c1cccs1,10,10.3,9.89,19.6,10.9
O=C(/C=C/c1cc2ccccc2o1)c1cnccn1,10.7,13.5,> 50,9.66,> 50
CC[C@@]1(O)C(=O)OCc2c1cc1n(c2=O)Cc2cc3ccccc3nc2-1 [CAMPTOTHECIN],,,2.56,,
CCc1nccnc1C(=O)/C=C/c1ccc(C(C)(C)C)cc1,15,10.2,11.2,22.5,12.2
CCc1nccnc1C(=O)/C=C/c1cc2ccccc2o1,17.4,12.9,17.3,22.5,16.4
N#Cc1ccc(/C=C/C(=O)c2cnccn2)cc1,23.2,16.2,11.2,15.9,12.6
CC(C)(C)c1ccc(/C=C/C(=O)c2cnccn2)cc1,13.7,16,15.5,13.4,12.5
O=C(/C=C/C=C/c1ccccc1)c1cnccn1,22.4,14.1,> 50,22.3,> 50
CCc1nccnc1C(=O)/C=C/C=C/c1ccccc1,7.76,21.6,33,19.1,34
O=C(/C=C/c1ccccc1N1CCOCC1)c1cnccn1,7.58,8.39,2.43,2.13,3.04
N#Cc1cccc(/C=C/C(=O)c2cnccn2)c1,7.41,9.69,10.7,5.87,13.7
O=C(/C=C/c1ccccc1Br)c1cnccn1,11.6,15.5,12.1,8.94,14.1
CCc1nccnc1C(=O)/C=C/c1ccc(Cl)cc1Cl,9.99,8.28,6.99,5.99,6.81

# The next lines start with results.
IC50 (U-937) [µM],IC50 (THP-1) [µM],IC50 (SK-OV-3) [µM],Structure (SMILES),IC50 (KG-1) [µM],IC50 [1] [µM]
1.76,2.39,2.06,CCc1nccnc1C(=O)/C=C/c1csc2ccccc12,14.4,2.29
2.38,7.23,3.11,CCc1nccnc1C(=O)/C=C/c1ccc(F)cc1,3.57,3.5
2.96,17,9.75,Cc1nccnc1C(=O)/C=C/c1ccc(Cl)cc1,10.4,11.8
4.66,9.16,6.39,Cc1nccnc1C(=O)/C=C/c1ccc(Cl)cc1Cl,7.67,6.71
1.6,1.35,2.02,Cc1nccnc1C(=O)/C=C/c1cccc(Cl)c1,2.15,1.57
2.46,2.23,5.62,Cc1nccnc1C(=O)/C=C/c1cccc([N+](=O)[O-])c1,4.76,6.38
1.23,1.95,3.22,Cc1nccnc1C(=O)/C=C/c1ccccc1Br,2.75,2.72
3.59,6.69,3.23,CCc1nccnc1C(=O)/C=C/c1cccc(Br)c1,9.32,4.7
1.93,5.34,3.88,CCc1nccnc1C(=O)/C=C/c1ccc(Br)cc1,9.31,5.93
6.55,6.22,10,Cc1nccnc1C(=O)/C=C/c1ccccn1,5.39,11.1
1.46,1.5,2.49,CCc1nccnc1C(=O)/C=C/c1ccccc1[N+](=O)[O-],3.68,4.12
3.37,5,2.37,Cc1cccc(/C=C/C(=O)c2nccnc2C)c1,5.43,1.55
2.41,2.12,4.39,Cc1nccnc1C(=O)/C=C/c1cccc(F)c1,1.93,5.33
6.18,10.1,> 50,O=C(/C=C/c1cccs1)c1cnccn1,11.9,> 50
6.89,7.78,4.52,CCc1nccnc1C(=O)/C=C/c1cccc(C)c1,10.3,5.6
2.13,4.53,7.3,CC(/C=C/C(=O)c1nccnc1C)=C\c1ccccc1,4.78,6.45
5.25,7.16,7.98,CCc1nccnc1C(=O)/C=C/C=C/c1ccc(F)cc1,6.91,8.25
5.48,5.36,3.74,CCc1nccnc1C(=O)/C=C/c1ccc2c(c1)OC(F)(F)O2,9.09,3.72
2.55,4.97,2.59,Cc1ccccc1/C=C/C(=O)c1nccnc1C,13,3.8
1.58,1.56,3.5,CCc1nccnc1C(=O)/C=C/c1cccc([N+](=O)[O-])c1,2.16,2.67
4.29,2.67,7.94,CCc1nccnc1C(=O)/C=C/c1ccc(SC)cc1,9.34,8.12
6.87,2.02,9.99,O=C(/C=C/c1cc2c(cc1[N+](=O)[O-])OCO2)c1cnccn1,11,6.57
5.78,3.04,5.92,CCc1nccnc1C(=O)/C=C/c1ccc(C(F)(F)F)cc1,9.21,7.29
5.91,4.45,5.06,CCc1nccnc1C(=O)/C=C/c1ccccc1Cl,3.17,5.58
1.23,5.95,4.69,CCc1nccnc1C(=O)/C=C/c1cccc(Cl)c1,3.66,5.11
